Results reported in US12103926B2, “Compounds for treating huntington's disease” (PTC THERAPEUTICS, INC., priority 2018, dated 2024).

Tested on: Endogenous Huntingtin Protein
Experiment: Endogenous Huntingtin Protein Assay (ELISA-based MSD electrochemiluminescence assay)
Assay type: cell-based
Conditions: MW1 (expanded polyglutamine) or MAB2166 capture antibody; lysates
Protocol: Compounds of Formula (I) were tested using the Meso Scale Discovery (MSD) Assay provided in International Application No. PCT/US2016/066042, filed on Dec. 11, 2016 and claiming priority to United States Provisional Application U.S. 62/265,652 filed on Dec. 10, 2015, the entire contents of which are incorporated herein by reference.
The Endogenous Huntingtin Protein assay used in Example 1 was developed using the ELISA-based MSD electrochemiluminescence assay platform.
Endogenous Huntingtin Protein Assay
Meso Scale Discovery (MSD) 96-well or 384-well plates were coated overnight at 4° C. with MW1 (expanded polyglutamine) or MAB2166 monoclonal antibody (for capture) at a concentration of 1 μg/mL in PBS (30 μL per well). Plates were then washed three times with 300 μL wash buffer (0.05% Tween-20 in PBS) and blocked (100 μL blocking buffer; 5% BSA in PBS) for 4-5 hours at room temperature with rotational shaking and then washed three times with wash buffer.
Samples (25 μL) were transferred to the antibody-coated MSD plate and incubated overnight at 4° C. After removal of the lysates, the plate was washed three times with wash buffer, and 25 μL of #5656S (Cell signaling; rabbit monoclonal) secondary antibody (diluted to 0.25 μg/mL in 0.05% Tween-20 in blocking buffer) was added to each well and incubated with shaking for 1 Hour at room temperature. Following incubation with the secondary antibody, the wells were rinsed with wash buffer after which 25 μL of goat anti-rabbit SULFO TAG secondary detection antibody (required aspect of the MSD system) (diluted to 0.25 μg/mL in 0.05% Tween-20 in blocking buffer) was added to each well and incubated with shaking for 1 hour at room temperature. After rinsing three times with wash buffer, 150 μL of read buffer T with surfactant (MSD) were added to each empty well, and the plate was imaged on a SI 6000 imager (MSD) according to manufacturers' instructions provided for 96- or 384-well plates.

Row | SMILES | IC50
1 | CN(c1cnc(-c2ccc(-n3ccc(N)n3)cc2O)cn1)C1CC(C)(C)NC(C)(C)C1 [Cpd 14, 5-(3-amino-1H-pyrazol-1-yl)-2-{5-[methyl(2,2,6,6-tetramethylpiperidin-4-yl)amino]pyrazin-2-yl}phenol] | 1000 to 3000 nM
2 | CC1(C)CC(Nc2cnc(-c3ccc(-c4ccc5nccn5n4)cc3O)cn2)CC(C)(C)N1 [Cpd 56, 5-(imidazo[1,2-b]pyridazin-6-yl)-2-{5-[(2,2,6,6-tetramethylpiperidin-4-yl)amino]pyrazin-2-yl}phenol] | < 100 nM
3 | CC1(C)CC(Nc2cnc(-c3ccc(-c4cn5ccnc5cn4)cc3O)cn2)CC(C)(C)N1 [Cpd 53, 5-(imidazo[1,2-a]pyrazin-6-yl)-2-{5-[(2,2,6,6-tetramethylpiperidin-4-yl)amino]pyrazin-2-yl}phenol] | 100 to 500 nM
4 | CN(c1cnc(-c2ccc(-n3cccn3)cc2O)cn1)C1CC(C)(C)NC(C)(C)C1 [Cpd 19, 2-{5-[methyl(2,2,6,6-tetramethylpiperidin-4-yl)amino]pyrazin-2-yl}-5-(1H-pyrazol-1-yl)phenol] | 1000 to 3000 nM
5 | CC1(C)CC(Nc2cnc(-c3ccc(-c4cccnc4)cc3O)cn2)CC(C)(C)N1 [Cpd 45, 5-(pyridin-3-yl)-2-{5-[(2,2,6,6-tetramethylpiperidin-4-yl)amino]pyrazin-2-yl}phenol] | 500 to 1000 nM
6 | Cc1cc(-c2cnc(N(C)C3CC(C)(C)NC(C)(C)C3)cn2)c(F)cc1-c1cn[nH]c1 [Cpd 11, 5-[2-fluoro-5-methyl-4-(1H-pyrazol-4-yl)phenyl]-N-methyl-N-(2,2,6,6-tetramethylpiperidin-4-yl)pyrazin-2-amine] | 100 to 500 nM
7 | CN(c1cnc(-c2ccc(-n3nccn3)cc2O)cn1)C1CC(C)(C)NC(C)(C)C1 [Cpd 61, 2-{5-[methyl(2,2,6,6-tetramethylpiperidin-4-yl)amino]pyrazin-2-yl}-5-(2H-1,2,3-triazol-2-yl)phenol] | 100 to 500 nM
8 | CC1(C)CC(Nc2cnc(-c3ccc(-c4cn[nH]c4)cc3O)cn2)CC(C)(C)N1 [Cpd 46, 5-(1H-pyrazol-4-yl)-2-{5-[(2,2,6,6-tetramethylpiperidin-4-yl)amino]pyrazin-2-yl}phenol] | < 100 nM
9 | COc1cc(-c2ccc(-c3cnc(NC4CC(C)(C)NC(C)(C)C4)cn3)c(O)c2)ncn1 [Cpd 49, 5-(6-methoxypyrimidin-4-yl)-2-{5-[(2,2,6,6-tetramethylpiperidin-4-yl)amino]pyrazin-2-yl}phenol] | < 100 nM
10 | CC1(C)CC(Nc2cnc(-c3ccc(-c4ccccn4)cc3O)cn2)CC(C)(C)N1 [Cpd 48, 5-(pyridin-2-yl)-2-{5-[(2,2,6,6-tetramethylpiperidin-4-yl)amino]pyrazin-2-yl}phenol] | 3000 to 9000 nM
11 | CC(C)(C)NC1CCN(c2cnc(-c3ccc(-c4cn[nH]c4)c(F)c3F)cn2)C1 (stereo not shown) [Cpd 63, N-tert-butyl-1-{5-[2,3-difluoro-4-(1H-pyrazol-4-yl)phenyl]pyrazin-2-yl}pyrrolidin-3-amine] | 100 to 500 nM
12 | CC(C)(C)NC1CCN(c2cnc(-c3cc(F)c(-c4cn[nH]c4)cc3F)cn2)C1 (stereo not shown) [Cpd 64, N-tert-butyl-1-{5-[2,5-difluoro-4-(1H-pyrazol-4-yl)phenyl]pyrazin-2-yl}pyrrolidin-3-amine] | < 100 nM
13 | CN(c1cnc(-c2ccc(-n3ccnc3)cc2O)cn1)C1CC(C)(C)NC(C)(C)C1 [Cpd 5, 5-(1H-imidazol-1-yl)-2-{5-[methyl(2,2,6,6-tetramethylpiperidin-4-yl)amino]pyrazin-2-yl}phenol] | 500 to 1000 nM
14 | [2H]C([2H])([2H])n1cc(-c2ccc(-c3cnc(N4CCC(NC(C)(C)C)C4)cn3)c(O)c2)cn1 (stereo not shown) [Cpd 60, 2-{5-[3-(tert-butylamino)pyrrolidin-1-yl]pyrazin-2-yl}-5-[1-(^2H3)methyl-1H-pyrazol-4-yl]phenol] | < 100 nM
15 | Cc1ncn(-c2cc(F)c(-c3cnc(N(C)C4CC(C)(C)NC(C)(C)C4)cn3)cc2F)n1 [Cpd 42, 5-[2,5-difluoro-4-(3-methyl-1H-1,2,4-triazol-1-yl)phenyl]-N-methyl-N-(2,2,6,6-tetramethylpiperidin-4-yl)pyrazin-2-amine] | 100 to 500 nM
16 | Oc1cc(-c2cn[nH]c2)ccc1-c1cnc(OC2CC3CCC(C2)N3)cn1 (stereo not shown) [Cpd 25, 2-[5-(8-azabicyclo[3.2.1]oct-3-yloxy)pyrazin-2-yl]-5-(1H-pyrazol-4-yl)phenol] | 3000 to 9000 nM
17 | Oc1cc(-c2cn[nH]c2)ccc1-c1cnc(N2CC3(CCNC3)C2)cn1 [Cpd 21, 2-[5-(2,6-diazaspiro[3.4]octan-2-yl)pyrazin-2-yl]-5-(1H-pyrazol-4-yl)phenol] | 1000 to 3000 nM

Row | SMILES | IC50
18 | CC1(C)CC(Nc2cnc(-c3ccc(-c4ccncc4)cc3O)cn2)CC(C)(C)N1 [Cpd 44, 5-(pyridin-4-yl)-2-{5-[(2,2,6,6-tetramethylpiperidin-4-yl)amino]pyrazin-2-yl} phenol] | 100 to 500 nM
19 | CN(c1cnc(-c2ccc(-c3cn[nH]c3)cc2O)cn1)C1CC2(CCCCC2)NC2(CCCCC2)C1 (stereo not shown) [Cpd 3, 2-{5-[(7-azadispiro[5.1.5^8.3^6]hexadecan-15-yl)(methyl)amino]pyrazin-2-yl}-5-(1H-pyrazol-4-yl)phenol] | 1000 to 3000 nM
20 | CC1(C)CC(Nc2cnc(-c3ccc(-n4nccn4)cc3O)cn2)CC(C)(C)N1 [Cpd 51, 2-{5-[(2,2,6,6-tetramethylpiperidin-4-yl)amino]pyrazin-2-yl}-5-(2H-1,2,3-triazol-2-yl)phenol] | 500 to 1000 nM
21 | CN(c1cnc(-c2ccc(-c3cn[nH]c3)cc2O)cn1)C1CCNCC1 [Cpd 20, 2-{5-[methyl(piperidin-4-yl)amino]pyrazin-2-yl}-5-(1H-pyrazol-4-yl)phenol] | 500 to 1000 nM
22 | CN(c1cnc(-c2ccc(-c3cn[nH]c3)c(F)c2F)cn1)C1CC(C)(C)NC(C)(C)C1 [Cpd 13, 5-[2,3-difluoro-4-(1H-pyrazol-4-yl)phenyl]-N-methyl-N-(2,2,6,6-tetramethylpiperidin-4-yl)pyrazin-2-amine] | < 100 nM
23 | Cn1cc(-c2ccc(-c3cnc(NC4CC(C)(C)NC(C)(C)C4)cn3)c(O)c2)cn1 [Cpd 54, 5-(1-methyl-1H-pyrazol-4-yl)-2-{5-[(2,2,6,6-tetramethylpiperidin-4-yl)amino]pyrazin-2-yl}phenol] | < 100 nM
24 | Cn1ccc(-c2ccc(-c3cnc(NC4CC(C)(C)NC(C)(C)C4)cn3)c(O)c2)n1 [Cpd 55, 5-(1-methyl-1H-pyrazol-3-yl)-2-{5-[(2,2,6,6-tetramethylpiperidin-4-yl)amino]pyrazin-2-yl}phenol] | 500 to 1000 nM
25 | Cn1cc(-c2ccc(-c3cnc(N4CCC(NC(C)(C)C)C4)cn3)c(O)c2)cn1 (stereo not shown) [Cpd 62, 2-{5-[3-(tert-butylamino)pyrrolidin-1-yl]pyrazin-2-yl}-5-(1-methyl-1H-pyrazol-4-yl)phenol] | < 100 nM
26 | CC1(C)CC(Nc2cnc(-c3ccc(-c4ncccn4)cc3O)cn2)CC(C)(C)N1 [Cpd 47, 5-(pyrimidin-2-yl)-2-{5-[(2,2,6,6-tetramethylpiperidin-4-yl)amino]pyrazin-2-yl} phenol] | 1000 to 3000 nM
27 | CN(c1cnc(-c2cc(Cl)c(-c3cn[nH]c3)cc2F)cn1)C1CC(C)(C)NC(C)(C)C1 [Cpd 23, 5-[5-chloro-2-fluoro-4-(1H-pyrazol-4-yl)phenyl]-N-methyl-N-(2,2,6,6-tetramethylpiperidin-4-yl)pyrazin-2-amine] | 100 to 500 nM
28 | Cc1[nH]ncc1-c1ccc(-c2cnc(N(C)C3CC(C)(C)NC(C)(C)C3)cn2)c(O)c1 [Cpd 12, 5-(5-methyl-1H-pyrazol-4-yl)-2-{5-[methyl(2,2,6,6-tetramethylpiperidin-4-yl)amino]pyrazin-2-yl}phenol] | 500 to 1000 nM
29 | CN(c1cnc(-c2ccc(-c3c[nH]nc3F)cc2O)cn1)C1CC(C)(C)NC(C)(C)C1 [Cpd 43, 5-(3-fluoro-1H-pyrazol-4-yl)-2-{5-[methyl(2,2,6,6-tetramethylpiperidin-4-yl)amino]pyrazin-2-yl}phenol] | 100 to 500 nM
30 | CN(c1cnc(-c2ccc(-c3cn[nH]c3C(F)(F)F)cc2O)cn1)C1CC(C)(C)NC(C)(C)C1 [Cpd 9, 2-{5-[methyl(2,2,6,6-tetramethylpiperidin-4-yl)amino]pyrazin-2-yl}-5-[5-(trifluoromethyl)-1H-pyrazol-4-yl]phenol] | 1000 to 3000 nM
31 | CC1(C)CC(Nc2cnc(-c3ccc(-n4ccnc4)cc3O)cn2)CC(C)(C)N1 [Cpd 50, 5-(1H-imidazol-1-yl)-2-{5-[(2,2,6,6-tetramethylpiperidin-4-yl)amino]pyrazin-2-yl}phenol] | 100 to 500 nM
32 | Oc1cc(-c2cn[nH]c2)ccc1-c1cnc(NC2CCNCC2)cn1 [Cpd 8, 2-{5-[(piperidin-4-yl)amino]pyrazin-2-yl}-5-(1H-pyrazol-4-yl)phenol] | 1000 to 3000 nM
33 | Oc1cc(-c2cn[nH]c2)ccc1-c1cnc(N2CC3CNCC3C2)cn1 (stereo not shown) [Cpd 6, 2-[5-(hexahydropyrrolo[3,4-c]pyrrol-2(1H)-yl)pyrazin-2-yl]-5-(1H-pyrazol-4-yl)phenol] | 1000 to 3000 nM
34 | CN(c1cnc(-c2ccc(-c3ccnc(O)c3)cc2O)cn1)C1CC(C)(C)NC(C)(C)C1 [Cpd 1, 4-(3-hydroxy-4-{5-[methyl(2,2,6,6-tetramethylpiperidin-4-yl)amino]pyrazin-2-yl}phenyl)pyridin-2-ol] | < 100 nM
